The results in this text go back to patent US20110039763A1, “TARGETED ANTIMICROBIAL MOIETIES” (C3 JIAN, INC., priority 2009, published 2011).

Entries after “also recorded” stand apart in the source; their conditions may differ. Square brackets hold non-standard residues; d marks the D form. Ends that are not written are not given here. Aib = CC(C)(N)C(=O)O

The experiment deals with microorganisms. As to the kind of experiment: Targeting peptide binding to target microorganisms (Tables 3, 10, 12). The settings on record: microorganism(s) the targeting peptide binds; binding in aqueous buffers varied with peptide solubility, preferably 1x PBS.

Turning to “PF-674 (DGCDSEPALTYR; Peptide with targeting and/or antimicrobial activity)”, the “Target(s)” value was “S. mutans; also recorded: E. coli”.

As for “PF-676 (AEYRGL; Peptide with targeting and/or antimicrobial activity)”, the “Target(s)” value was “S. mutans; also recorded: E. coli”.

As to “PF-678 (RDRRWTRRDMYDWLESARV; Peptide with targeting and/or antimicrobial activity)”, the “Target(s)” value was “Mycobacteria spp”.

In the case of “PF-679 (CRARFIRR; Peptide with targeting and/or antimicrobial activity)”, the “Target(s)” value is “S. mutans; also recorded: E. coli”.

On to “PF-689 (SAPSG; Peptide with targeting and/or antimicrobial activity)”, for which the “Target(s)” value is listed as “S. mutans; also recorded: E. coli”.

Take “PF-701 (PRGAQSGHG; Peptide with targeting and/or antimicrobial activity)”: the “Target(s)” value is on record as “S. mutans”.

As for “PF-703 (MTTVDNIVGLVIAVALMAFLFAALLFPEKF; Peptide with targeting and/or antimicrobial activity)”, the “Target(s)” value is “Mycobacteria spp”.

For “PF-705 (GEEEGTVAD; Peptide with targeting and/or antimicrobial activity)”, the “Target(s)” value is “S. mutans; also recorded: E. coli”.

Turning to “PF-706 (LGYGAWIGCGLGLNGFHRID; Peptide with targeting and/or antimicrobial activity)”, the “Target(s)” value was “L. pneumophila”.

For the substance “PF-707 (IDPESIVTTNNKQDNVDEQ; Peptide with targeting and/or antimicrobial activity)”, the “Target(s)” value is “S. mutans; also recorded: E. coli”.

Consider “PF-709 (NKKHSPMD; Peptide with targeting and/or antimicrobial activity)”, for which the “Target(s)” value is recorded as “S. mutans”.

For “PF-711 (KTAGPTGTIYKTN; Peptide with targeting and/or antimicrobial activity)”, the “Target(s)” value is recorded as “S. mutans”.

In the case of “PF-712 (QIYRHVHKVQAKSANLRLY; Peptide with targeting and/or antimicrobial activity)”, the “Target(s)” value is listed as “S. mutans; also recorded: E. coli”.

With “PF-714 (FVVTQRMLRMYKK; Peptide with targeting and/or antimicrobial activity)”, the “Target(s)” value is reported as “L. pneumophila”.

Consider “PF-716 (HGENHHHKSDEKDNDSSEKKD; Peptide with targeting and/or antimicrobial activity)”, for which the “Target(s)” value is given as “S. mutans”.

“PF-717 (PQSEVTFENIYAPKANGGGLYGI; Peptide with targeting and/or antimicrobial activity)”: the “Target(s)” value is given as “E. coli”.

Regarding “PF-720 (SLDMGK; Peptide with targeting and/or antimicrobial activity)”, the “Target(s)” value is reported as “S. mutans”.

As to “PF-724 (CYRFLTPKRPTRIS; Peptide with targeting and/or antimicrobial activity)”, the “Target(s)” value was “L. pneumophila”.

Consider “PF-727 (AYARCRHDYPFTLGQMQTH; Peptide with targeting and/or antimicrobial activity)”, for which the “Target(s)” value is on record as “S. mutans; also recorded: E. coli”.

For “PF-728 (AIGQEQDRREYYYYSGYPYYY; Peptide with targeting and/or antimicrobial activity)”, the “Target(s)” value was “S. mutans; also recorded: E. coli”.

For “PF-731 (RHKLIRLPLSESVFCFLNNPKI; Peptide with targeting and/or antimicrobial activity)”, the “Target(s)” value is “L. pneumophila”.

“PF-732 (DRPSQTTHHTLSSSRITGPS; Peptide with targeting and/or antimicrobial activity)”: the “Target(s)” value is listed as “E. coli”.

Regarding “PF-733 (VISRQMGSEAVLELFIIM; Peptide with targeting and/or antimicrobial activity)”, the “Target(s)” value was “S. mutans; also recorded: E. coli”.

For the substance “PF-735 (YDPLFPNDKN; Peptide with targeting and/or antimicrobial activity)”, the “Target(s)” value is “S. mutans; also recorded: E. coli”.

On to “PF-750 (AESSPAKTTA; Peptide with targeting and/or antimicrobial activity)”, for which the “Target(s)” value is given as “M. luteus; also recorded: C. jeikeium”.

As for “PF-751 (AESSPAQETT; Peptide with targeting and/or antimicrobial activity)”, the “Target(s)” value is “S. epidermidis; also recorded: E. coli; also recorded: C. albicans; also recorded: C. jeikeium”.

Turning to “PF-765 (YLYWEVEHKPIIAKRDAYYAQLRKQKEIEEGA; Peptide with targeting and/or antimicrobial activity)”, the “Target(s)” value is “S. epidermidis and M. luteus and E. coli and MRSA and E. faecalis and C. jeikeium”.

With “PF-766 (DAYYAQLRKQKEIEEGA; Peptide with targeting and/or antimicrobial activity)”, the “Target(s)” value is “S. epidermidis and M. luteus and C. albicans and MRSA and E. faecalis and C. jeikeium”.

As for “PF-767 (DGKQGEPVALKPTDN; Peptide with targeting and/or antimicrobial activity)”, the “Target(s)” value is “S. epidermidis and M. luteus and E. coli and MRSA and S. pneumoniae and E. faecalis and C. jeikeium”.

With “PF-768 (GFRGGKRGGARG; Peptide with targeting and/or antimicrobial activity)”, the “Target(s)” value is listed as “S. epidermidis; also recorded: S. pneumoniae; also recorded: E. faecalis; also recorded: C. jeikeium”.

On to “PF-772 (TKESSS; Peptide with targeting and/or antimicrobial activity)”, for which the “Target(s)” value is “S. epidermidis and C. albicans and MRSA and S. pneumoniae and C. jeikeium”.

Turning to “PF-773 (TLKESK; Peptide with targeting and/or antimicrobial activity)”, the “Target(s)” value is given as “S. epidermidis; also recorded: C. albicans; also recorded: C. jeikeium”.

As for “PF-777 (PGADGKLAEASAAIARLVRS; Peptide with targeting and/or antimicrobial activity)”, the “Target(s)” value is “Mycobacteria spp”.

Take “PF-778 (MNLILTAHGT; Peptide with targeting and/or antimicrobial activity)”: the “Target(s)” value is “Mycobacteria spp”.

Take “PF-779 (IYGDFFNFYLCDISLKVNGLQPGGPVRTVKLFGQPTGRCTPQ; Peptide with targeting and/or antimicrobial activity)”: the “Target(s)” value is “Mycobacteria spp”.

For the substance “PF-780 (AVYDALVALAAAEHRAELATRDARAKDTYEKIGVHVVVAA; Peptide with targeting and/or antimicrobial activity)”, the “Target(s)” value is “Mycobacteria spp”.

As to “PF-781 (PLVVVNHRRAERSRG; Peptide with targeting and/or antimicrobial activity)”, the “Target(s)” value is recorded as “Mycobacteria spp”.

As for “PF-782 (TGPRRGIDLTSNRALSEVLDEGLELNSRK; Peptide with targeting and/or antimicrobial activity)”, the “Target(s)” value is reported as “Mycobacteria spp”.

For the substance “PF-783 (FTSEVRGVFTYRVNKAGLITNMRGYWNLDMMTFGNQE; Peptide with targeting and/or antimicrobial activity)”, the “Target(s)” value was “Mycobacteria spp”.

On to “PF-784 (MAMTTVDNIVGLVIAVALMAFLFAALLFPEKF; Peptide with targeting and/or antimicrobial activity)”, for which the “Target(s)” value is “Mycobacteria spp”.

On to “PF-785 (MRPQHSPAGKAFVVKKITHEQS; Peptide with targeting and/or antimicrobial activity)”, for which the “Target(s)” value is listed as “Mycobacteria spp”.

Turning to “PF-786 (LSERERRRLKRGII; Peptide with targeting and/or antimicrobial activity)”, the “Target(s)” value is “Mycobacteria spp”.

With “PF-787 (MTERQRRALLKQHPEVVSWSDYLEKRKRRTGTAG; Peptide with targeting and/or antimicrobial activity)”, the “Target(s)” value is on record as “Mycobacteria spp”.

On to “PF-788 (GLITVFAGTARILQLRRAAKKTHAAALR; Peptide with targeting and/or antimicrobial activity)”, for which the “Target(s)” value is on record as “Mycobacteria spp”.

For “PF-789 (PRGAQSGHG; Peptide with targeting and/or antimicrobial activity)”, the “Target(s)” value is given as “Mycobacteria spp”.

Consider “PF-790 (PAGPDHLDQRDHR; Peptide with targeting and/or antimicrobial activity)”, for which the “Target(s)” value is “Mycobacteria spp”.

In the case of “PF-791 (IFLTTQNTDYSEHNAA; Peptide with targeting and/or antimicrobial activity)”, the “Target(s)” value was “S. mutans”.

As to “PF-792 (ALHASGIQAI; Peptide with targeting and/or antimicrobial activity)”, the “Target(s)” value is “S. mutans”.

As to “PF-793 (YTQ[Aib]NNASAYAMLLTNKDTVP; ends and bridges not checked)”, the “Target(s)” value is reported as “S. mutans”.

As for “PF-794 (NLYFENQGN; Peptide with targeting and/or antimicrobial activity)”, the “Target(s)” value was “S. mutans”.

With “PF-795 (ALHKSGIQVIADWVPDQIYN; Peptide with targeting and/or antimicrobial activity)”, the “Target(s)” value was “S. mutans”.

Take “PF-796 (YTQSNIPTAYALMLSNKDSI; Peptide with targeting and/or antimicrobial activity)”: the “Target(s)” value is given as “S. mutans”.

In the case of “PF-797 (WYYFDNNGYM; Peptide with targeting and/or antimicrobial activity)”, the “Target(s)” value was “S. mutans”.

In the case of “PF-798 (ALHSKGIKVMADWVPDQMYA; Peptide with targeting and/or antimicrobial activity)”, the “Target(s)” value is listed as “S. mutans”.

“PF-799 (YTHYNTALSYALLLTNKSSVP; Peptide with targeting and/or antimicrobial activity)”: the “Target(s)” value is listed as “S. mutans”.

Turning to “PF-800 (WYYFDNNGYM; Peptide with targeting and/or antimicrobial activity)”, the “Target(s)” value is “S. mutans”.
